Test results from patent US10766869B2, “Triazoles for the treatment of demyelinating dieases” (Vertex Pharmaceuticals Incorporated, priority 2015, dated 2020).
Where two headings read alike, the source gives them in different places.

Key:
[1] = test system: primary rat mixed cortical cells; test: In vitro myelination assay (MBP positive myelin strands, fold myelin pixels above background); type: cell-based; conditions: Rattus norvegicus, relative to baseline of no added compound; for fold induction at 1 µM: 1.0 μM compound; for fold induction at 10 µM: 10.0 μM compound
How it was run: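 Read-out is total MBP-positive myelin strand pixels per well, detected by custom ridge-tracing software and reported as fold over untreated baseline. Primary P1 rat mixed cortical cells received compound (1.0 or 10.0 μM) for 14 days, with medium half-replaced on days 6 and 10. Standard deviation was taken across all replicates.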

[2] = test system: C57BL/6 mice demyelinated with cuprizone; test: In vivo mouse cuprizone assay (new myelin, MBP positive / MOG negative area); conditions: for effect measured as new myelin generated in response to compound treatment compared to control with no added compound: Regimen A (QD or BID for 14 days via oral gavage), various doses; for effect (new myelin generated compared to control): Regimen A, oral gavage
Excerpt: Assays for Detecting and Measuring Remyelination Properties of Compounds In Vivo Mouse Cuprizone Assay:
Cuprizone Feeding Protocol:
2 month old female C57BL/6 mice (Stock Number: 000664) were purchased from Jackson Labs and fed for 4-10 months with a 0.2% cuprizone chow (provided by Research Diets, Product # D10020701R, Description AIN-76A Rodent Diet with 0.2% cuprizone) using cuprizone purchased from Sigma (Cat #14690-100G). Chow was provided ad libitum, and refreshed every 4 days to ensure stability of the cuprizone. Mice were maintained on this diet for 4-10 months before initiation of the experiments.
1) 24 hours prior to the start of dosing, 6 to 10 mice were switched from cuprizone chow to normal chow (Picolab rodent diet 20 EXT IRR 5053, irradiated) without added cuprizone. These mice were maintained on normal chow throughout the course of dosing.
2) 6 to 10 mice per group were randomized into new cages such that mice that were housed in one cage during the cuprizone diet were not housed together in one dose group during the study.
3) Mice were dosed with compound in one of two regimens: Regimen A: mice were dosed QD or BID for 14 days via oral gavage. Regimen B: mice were dosed QD or BID for 14 days via IP injection. However, other dosing schedules and/or routes of administration may also be used.
4) On the last day of dosing, dried blood spots were collected at multiple time points following the last dose. Often this was 30 minutes, 2, 6 and 24 hours following the final dose on day 14 via the tail vein.
Perfusion and Sectioning:
1) The day after the last day of dosing, mice were transcardially perfused with 12 ml of PBS (Sigma, P4417) followed by 20 ml of 3.2% paraformaldehyde in PBS (Electron Microscopy Sciences #15714-S). The brains were removed via standard dissection techniques and each was postfixed in 3.2% paraformaldehyde (20 ml) for 24-48 hours at room temperature in sealed scintillation vials.
2) Serial 50 micron sections were collected through the anterior posterior extent of the brain, from just behind the olfactory bulb, through visual cortex using a vibrating microtome, the V-STAR (described in International Publication No. WO 2013/012799 and U.S. Pat. No. 8,967,024 both of which are incorporated herein by reference in their entirety). Sections were collected in phosphate buffered saline (PBS). Vibratome speed was set to 1.1 mm/s and amplitude was set to 0.8 mm.
3) A series of every 24th section was removed for staining yielding 5 sections per brain.
1) Tissue sections were stained using an automated system for processing blots (hereinafter the “blotinator”) (described in WO2011/087646 and U.S. Pat. Nos. 8,337,754 and 8,679,406 each of which is incorporated herein by reference in its entirety). Brain sections were placed in the blotinator plate and bathed in PBS. The blotinator applied primary antibodies (MOG and MBP together) and Hoechst nuclear stain for 12 hours at room temperature with constant shaking.
The following stains were diluted in blocking buffer (described below):
Hoechst nuclear stain (0.5 mg/ml)(bisBenzimide H 33342 trihydrochloride Sigma #33342).
Myelin basic Protein (MBP) antibody (Abcam Cat # ab7349) was diluted at a 1:750 ratio in blocking buffer).
Myelin Oligodendrocyte Glycoprotein (MOG) (R&D systems Cat # AF2439) was diluted at a 1:250 ratio in blocking buffer.
Antibodies were diluted in blocking buffer, which consisted of 0.3% Triton X-100 (Sigma Cat #234729), 0.02% Sodium Azide (Sigma Cat # S2002) and 8% fetal bovine serum in PBS (Sigma Cat # F2442).
2) The blotinator washed the samples 4 times for 5 minutes each with a wash buffer (0.2% Triton X-100 in PBS).
3) The blotinator applied secondary antibodies diluted in blocking buffer and incubated them for 2 hours with constant shaking.
Alexa 488 donkey anti-rat secondary (Life technologies Cat # A-21208) was diluted at 1:1000 in blocking buffer. […]

[3] = read-out: Fold myelin pixels above background

SMILES | fold induction at 1 µM [1, 3] | fold induction at 10 µM [1, 3] | effect measured as new myelin generated in response to compound treatment compared to control with no added compound [2] | effect (new myelin generated compared to control) ([2]; 20 mpk) | effect (new myelin generated compared to control) ([2]; 30 mpk) | fold induction at 1 µM ([1]; read-out: Fold myelin pixels above background, 1.0 μM) | fold induction at 10 µM ([1]; read-out: Fold myelin pixels above background, 10.0 μM) | effect (new myelin generated compared to control) ([2]; 10 mpk) | effect (new myelin generated compared to control) ([2]; 25 mpk) | effect (new myelin generated compared to control) ([2]; 50 mpk)
Cc1cc(Nc2ncn(-c3cc(F)cc(F)c3)n2)cc(N2CC(N3CCOCC3)C2)c1 [Compound 485, 1-(3,5-difluorophenyl)-N-[3-methyl-5-(3-morpholinoazetidin-1-yl)phenyl]-1,2,4-triazol-3-amine] | 10 to 100 | 1 to 10 | positive effect | positive effect | positive effect |  |  |  |  | 
Cc1cc(Nc2ncn(-c3ccccc3)n2)cc(N2CCN(C)CC2)c1 [Compound 247, N-[3-methyl-5-(4-methylpiperazin-1-yl)phenyl]-1-phenyl-1,2,4-triazol-3-amine] |  |  | positive effect |  |  | 100 to 1000 | ≤ 1 | positive effect | positive effect | positive effect
